US9969758B2, “Antimicrobial compounds” (BIOMERIEUX, priority 2014, dated 2018)

How the values were obtained:
Assay in all cases: MIC by agar dilution
E. faecalis (11) = assay type: cell-based, Enterococcus faecalis; details: Enterococcus faecalis, E. faecalis (11)
Method in brief: (§1)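 Compounds dissolved in sterile water are incorporated into supplemented peptone-free agar over 0.016 to 32 μg/mL for gram-positive bacteria. Each isolate is multispot-inoculated at 10 000 CFU/spot and read after 22 hours at 37° C.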

AmpC (22) = assay type: cell-based, Enterobacteriaceae
Method in brief: (§2)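 Agar dilution on peptone-free medium with 2% lysed horse blood, NAD and hemin (25.0 μg/mL each), compounds 0.0031 to 8.0 μg/mL; inoculum 10 000 CFU/spot, 22 h at 37° C. Fosfomycin tested in IsoSensitest medium plus 25.0 μg/mL glucose-6-phosphate; at least two replicates.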

Salmonella isolates = assay type: cell-based, Salmonella spp; details: three Salmonella isolates; read-out: MICs
From the text: (§3) Bacterial isolates. […] These included Citrobacter freundii (n=5), other species of Citrobacter (n=4), Enterobacter aerogenes (n=1), Enterobacter cloacae (n=27), Escherichia coli (n=53), Klebsiella oxytoca (n=5), Klebsiella pneumoniae (n=87), Kluyvera spp (n=1), Proteus mirabilis (n=8), Providencia rettgeri (n=2), Salmonella spp (n=3), and Serratia marcescens (n=1). Among these 197 isolates, there were 128 (65%) carbapenemase producers, including; 87 with NDM-1, 9 with IMP, 11 with KPC, 14 with OXA-48 and 7 with VIM. The majority of the carbapenemase producers jointly produced broad-spectrum β-lactamases (BSBL) or cephalosporinases (AmpC β-lactamases), but the latter are not documented for the sake of clarity.
(§4) Determining the minimum inhibitory concentrations (MIC). All the MICs were determined using an agar dilution method. This required use of a medium without a defined antagonist (peptone-free), prepared as described previously with the inclusion of 2% horse blood lysed with saponin, 25.0 μg/mL of NAD and 25.0 μg/mL of hemin [17]. […] The MICs of fosfomycin were determined by the same method, except that the IsoSensitest medium (Oxoid, Basingstoke, United Kingdom) was used, plus 25.0 μg/mL of glucose-6-phosphate (Sigma, Poole, United Kingdom) and an extended range of fosfomycin concentrations. […]

All S. aureus (50) = assay type: cell-based, Staphylococcus aureus; details: All S. aureus (50)
Method in brief: as §1

K. oxytoca = assay type: cell-based, Klebsiella oxytoca; details: Klebsiella oxytoca; one of the five isolates of K. oxytoca
From the text: as §3, §4

Kluyvera sp. (n=1) = assay type: cell-based, Kluyvera spp
From the text: as §3, §4

E. cloacae (27) = assay type: cell-based, Enterobacter cloacae
Method in brief: as §2

[1] = system: glycopeptide-resistant enterococci; assay type: cell-based
Method in brief: as §1

All Enterococci (50) = assay type: cell-based; details: All Enterococci (50)
Method in brief: as §1

[2] = system: methicillin-resistant Staphylococcus aureus; assay type: cell-based
Method in brief: as §1

[3] = system: methicillin-sensitive Staphylococcus aureus; assay type: cell-based; details: MSSA (13)
Method in brief: as §1

[4] = system: carbapenemase-producing Enterobacteriaceae; assay type: cell-based
Method in brief: as §2

[5] = system: Enterobacteriaceae with a broad-spectrum β-lactamase; assay type: cell-based
Method in brief: as §2

Citrobacter (n=9) = assay type: cell-based
Method in brief: as §2

Enterobacteriaceae (197) = assay type: cell-based; details: Enterobacteriaceae (197)
Method in brief: as §2

E. aerogenes (n=1) = assay type: cell-based, Enterobacter aerogenes
From the text: as §3, §4

E. faecium (34) = assay type: cell-based, Enterococcus faecium
Method in brief: as §1

K. pneumoniae (87) = assay type: cell-based, Klebsiella pneumoniae; details: Klebsiella pneumoniae
Method in brief: as §2

[6] = read-out: Modal MIC (most frequent MIC)
[7] = Staphylococcus aureus, read-out: MIC50
[8] = Staphylococcus aureus, read-out: MIC90
[9] = Staphylococcus aureus, read-out: Modal MIC (most frequent MIC)

C[C@H](N)C(=O)N[C@@H](C)P(=O)(O)O [Alafosfalin, L-alanyl-L-1-aminoethylphosphonic acid]
> 8 µg/mL: MIC90 (AmpC (22)) | MIC (AmpC (22); [6]) | MIC (K. oxytoca) | MIC90 [5] | MIC90 (Enterobacteriaceae (197); read-out: MIC90) | MIC90 (K. pneumoniae (87); K. pneumoniae (87), read-out: MIC90)
0.125 to 16 µg/mL: MIC Range (All S. aureus (50)) | MIC Range ([2]; MRSA (37))
16 µg/mL: MIC50 [1] | MIC [1, 6] | MIC50 (All Enterococci (50); read-out: MIC50) | MIC50 (E. faecium (34); Enterococcus faecium, E. faecium (34), read-out: MIC50) | MIC90 (E. faecium (34); Enterococcus faecium, E. faecium (34), read-out: MIC90) | MIC (E. faecium (34); Enterococcus faecium, E. faecium (34), read-out: Modal MIC (most frequent MIC))
32 µg/mL: MIC90 (E. faecalis (11); read-out: MIC90) | concentration by which all isolates were inhibited (E. faecium (34); 34 E. faecium isolates (including 31 vancomycin-resistant))
0.125 to 4 µg/mL: MIC Range (E. cloacae (27); E. cloacae (27))
≤ 4 µg/mL: concentration to which all the isolates were sensitive (Kluyvera sp. (n=1)) | concentration to which all the isolates were sensitive (Citrobacter (n=9)) | concentration to which all the isolates were sensitive (E. aerogenes (n=1))
1 µg/mL: MIC50 (E. cloacae (27); Enterobacter cloacae, E. cloacae (27), read-out: MIC50) | MIC90 (E. cloacae (27); Enterobacter cloacae, E. cloacae (27), read-out: MIC90) | MIC (E. cloacae (27); Enterobacter cloacae, E. cloacae (27), read-out: Modal MIC (most frequent MIC)) | MIC50 [4]
8 µg/mL: MIC50 (E. faecalis (11); read-out: MIC50) | MIC (E. faecalis (11); [6]) | MIC90 (All S. aureus (50); [8]) | MIC (All Enterococci (50); [6]) | MIC90 ([2]; MRSA (37)) | MIC90 ([2]; Staphylococcus aureus, MRSA) | MIC90 [3, 8]
~32 times: activity relative to fosfomycin (E. cloacae (27); E. cloacae)
4 to 32 µg/mL: MIC Range (E. faecium (34); E. faecium (34))
87%: percent of isolates inhibited at 8 µg/mL (K. pneumoniae (87); K. pneumoniae isolates, at 8 μg/mL, read-out: isolates inhibited)
4 µg/mL: MIC50 (AmpC (22)) | MIC50 (All S. aureus (50); [7]) | MIC (All S. aureus (50); [9]) | concentration by which all the isolates were inhibited (E. cloacae (27); E. cloacae isolates (n=27)) | MIC50 ([2]; Staphylococcus aureus, MRSA) | MIC ([2]; Staphylococcus aureus, MRSA, read-out: Modal MIC (most frequent MIC)) | MIC50 [3, 7] | MIC [3, 9] | MIC90 [4]
0.25 to 16 µg/mL: MIC Range [3]
≥ 8 µg/mL: MIC (Salmonella isolates)
> 32 µg/mL: MIC90 [1] | MIC90 (All Enterococci (50); read-out: MIC90)
2 µg/mL: MIC [4, 6] | MIC50 [5] | MIC [5, 6] | MIC50 (Enterobacteriaceae (197); read-out: MIC50) | MIC (Enterobacteriaceae (197); [6]) | MIC50 (K. pneumoniae (87); K. pneumoniae (87), read-out: MIC50) | MIC (K. pneumoniae (87); K. pneumoniae (87), read-out: Modal MIC (most frequent MIC))
